Read-outs that look alike come from different tables or passages of the source.
Tests used:
soybean LOX-1 [1] = molecular target: T1, soybean LOX-1 (Glycine max, UniProt P08170); test: Enzyme kinetics study (Michaelis–Menten, Lineweaver–Burk); format: biochemical; parameters: purchased; conditions: for type of inhibition: Lineweaver–Burk plot; for Ki: from slope of Lineweaver–Burk plot vs inhibitor concentration, read-out: Ki (inhibitor constant)
T1 sequence (P08170 1-839): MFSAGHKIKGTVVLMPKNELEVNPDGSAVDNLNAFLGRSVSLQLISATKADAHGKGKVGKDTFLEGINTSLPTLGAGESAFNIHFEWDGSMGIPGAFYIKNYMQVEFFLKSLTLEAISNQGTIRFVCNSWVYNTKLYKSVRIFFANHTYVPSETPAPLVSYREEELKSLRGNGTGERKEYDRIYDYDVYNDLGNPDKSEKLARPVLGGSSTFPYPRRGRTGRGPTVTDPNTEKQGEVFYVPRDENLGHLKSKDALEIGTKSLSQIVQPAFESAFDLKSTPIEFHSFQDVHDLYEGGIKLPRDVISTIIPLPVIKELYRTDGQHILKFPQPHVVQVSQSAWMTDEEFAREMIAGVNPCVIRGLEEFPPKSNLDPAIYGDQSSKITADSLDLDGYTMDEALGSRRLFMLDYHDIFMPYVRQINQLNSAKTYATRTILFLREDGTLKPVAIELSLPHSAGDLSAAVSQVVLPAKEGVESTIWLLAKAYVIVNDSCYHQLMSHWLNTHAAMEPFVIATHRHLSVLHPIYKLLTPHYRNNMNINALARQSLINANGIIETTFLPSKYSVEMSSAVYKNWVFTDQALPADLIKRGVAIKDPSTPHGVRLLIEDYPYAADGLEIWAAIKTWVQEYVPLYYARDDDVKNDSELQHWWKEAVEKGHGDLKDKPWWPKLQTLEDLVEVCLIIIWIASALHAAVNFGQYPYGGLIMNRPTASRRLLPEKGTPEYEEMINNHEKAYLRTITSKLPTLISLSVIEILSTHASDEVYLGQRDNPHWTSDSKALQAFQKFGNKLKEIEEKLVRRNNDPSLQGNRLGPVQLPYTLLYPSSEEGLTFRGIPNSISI
Method: Since compounds 3e and tHGA (3a) are competitive inhibitors, there were no changes in maximal velocity.
Kinetics study: Enzyme kinetics was performed similar to the above inhibition assay with slight modification. […] About 10 μL each of 4 linoleic acid substrate concentrations (0.2, 0.3, 0.4, and 0.5 mM) was added to initiate the enzymatic conversion. End product of the reaction was measured at 234 nm over a period of 10 min, with readings taken every 30 s. The type of inhibition (competitive, uncompetitive, noncompetitive) was determined by nonlinear regression Michaelis–Menten enzyme kinetics and the corresponding Lineweaver–Burk plots using 3 concentrations of each inhibitor: 0, 1.57, and 3.13 μg/mL. All experiments were performed in triplicate and the average values and standard errors were plotted. The Km and Vmax values were calculated from the nonlinear regression fitting curve of GraphPad Prism 5.

[2] = tested on: allergic airway inflammation; parameters: method as in PMID 22266348; conditions: acute murine model; compared with Zileuton; cited from earlier work
soybean LOX-1 [3] = molecular target: T1, soybean LOX-1; parameters: purchased; method as in PMID 25100256; conditions: data published in previous work, read-out: IC50 Value (μM) Mean ± SEM, cited from earlier work
soybean LOX-1 [4] = molecular target: T1, soybean LOX-1; test: In vitro soybean 15-lipoxygenase (LOX) inhibition assay; conditions: for inhibition at 100 µg/mL: read-out: % Inhibition (100 μg/mL); for solubility of the compound in the 15-LOX assay: assay could not be carried out
Method: Briefly, sodium phosphate buffer (160 μL, 100 mM, pH 8.0), test sample (10 μL), and soybean 15-LOX (1.13.11.12) type I-B solution (20 μL, 320 U/well) were mixed and incubated at room temperature for 15 min. The substrate linoleic acid (10 μL, 0.6 mM) solution was added to initiate the reaction. End product from the enzymatic conversion was measured at absorbance of 234 nm over a period of 6 min and the assay was performed in triplicate. Dimethyl sulfoxide (DMSO) was used as a solvent to dissolve test samples and reference standard. […] IC50 values were calculated by the nonlinear regression fitting curve of GraphPad Prism 5. The percentage of inhibition can be calculated by the following formula [10, 11]: Inhibitory% = ODcontrol−ODsample/ODcontrol

Row | SMILES | IC50 (soybean LOX-1 [4]) [µM] | inhibition at 100 µg/mL (soybean LOX-1 [4]) [%] | melting point [°C] | also measured
1 | CC(=O)c1c(O)cc(O)c(C/C=C(\C)CCC=C(C)C)c1O [Compound 3a, 2,4,6-Trihydroxy-3-geranylacetophenone] | – | – | – | type of inhibition (soybean LOX-1 [1]): competitive; Ki (soybean LOX-1 [1]): 41.1 µM; prevention of allergic airway inflammation [2]: as effective as Zileuton; IC50 (soybean LOX-1 [3]; listed as 3a (tHGA)): 23.6 ± 1.7 µM
2 | CC(C)=CCC/C(C)=C/Cc1c(O)cc(O)c(C(=O)C(C)C)c1O [Compound 3b] | – | – | – | IC50 (soybean LOX-1 [3]): 27.6 ± 3.6 µM
3 | CCC(=O)c1c(O)cc(O)c(C/C=C(\C)CCC=C(C)C)c1O [Compound 3c, (E)-1-(3-(3,7-dimethylocta-2,6-dienyl)-2,4,6-trihydroxyphenyl)propan-1-one] | – | – | – | IC50 (soybean LOX-1 [3]): 12.3 ± 0.6 µM
4 | CCCC(=O)c1c(O)cc(O)c(C/C=C(\C)CCC=C(C)C)c1O [Compound 3d, (E)-1-(3-(3,7-dimethylocta-2,6-dienyl)-2,4,6-trihydroxyphenyl)butan-1-one] | 15.3 ± 0.5 | 90.7 ± 5 | 116 to 118 | –
5 | CCCCC(=O)c1c(O)cc(O)c(C/C=C(\C)CCC=C(C)C)c1O [Compound 3e, (E)-1-(3-(3,7-dimethylocta-2,6-dienyl)-2,4,6-trihydroxyphenyl)pentan-1-one] | – | – | – | fold less active than the standard drug NDGA (soybean LOX-1 [4]; IC50 compared with NDGA): 100 fold; type of inhibition (soybean LOX-1 [1]): competitive; Ki (soybean LOX-1 [1]): 36.1 µM; IC50 (soybean LOX-1 [3]): 10.3 µM
6 | CC(C)=CCC/C(C)=C/Cc1c(O)cc(O)c(C(=O)C2CCCCC2)c1O [Compound 3f] | – | – | – | IC50 (soybean LOX-1 [3]): 26.3 ± 1.3 µM
7 | CC(=O)c1c(O)cc(O)c(CC=C(C)C)c1O [Compound 4a, 1-(2,4,6-trihydroxy-3-(3-methylbut-2-enyl)phenyl)ethanone] | 72.1 ± 1.2 | 94.8 ± 5.2 | – | –
8 | CC(C)=CCc1c(O)cc(O)c(C(=O)C(C)C)c1O [Compound 4b, 2-methyl-1-(2,4,6-trihydroxy-3-(3-methylbut-2 enyl)phenyl)propan-1-one] | 53.7 ± 0.7 | 82.5 ± 7.3 | – | –
9 | CCC(=O)c1c(O)cc(O)c(CC=C(C)C)c1O [Compound 4c, 1-(2,4,6-trihydroxy-3-(3-methylbut-2-enyl)phenyl)propan-1-one] | 61 ± 1.1 | 78.1 ± 3.9 | 138 to 140 | –
10 | CCCC(=O)c1c(O)cc(O)c(CC=C(C)C)c1O [Compound 4d, 1-(2,4,6-trihydroxy-3-(3-methylbut-2-enyl)phenyl)butan-1-one] | 39.5 ± 1.2 | 86.2 ± 6.9 | – | –
11 | CCCCC(=O)c1c(O)cc(O)c(CC=C(C)C)c1O [Compound 4e, 1-(2,4,6-trihydroxy-3-(3-methylbut-2-enyl)phenyl)pentan-1-one] | 35.1 ± 1.3 | 79.4 ± 6.7 | 133 to 135 | –
12 | CC(C)=CCc1c(O)cc(O)c(C(=O)C2CCCCC2)c1O [Compound 4f, Cyclohexyl(2,4,6-trihydroxy-3-(3-methylbut-2-enyl)phenyl)methanone] | 52.6 ± 1 | 93.7 ± 3.8 | – | –
13 | CC(C)=CCc1c(O)cc(O)c(C(=O)/C=C/c2ccccc2)c1O [Compound 4g, (E)-3-phenyl-1-(2,4,6-trihydroxy-3-(3-methylbut-2-enyl)phenyl)prop-2-en-1-one] | 95.4 ± 4 | 95.2 ± 3.2 | 203 to 205 | –
14 | COc1cc(OC)c(C(C)=O)c(O)c1C/C=C(\C)CCC=C(C)C [Compound 5a, (E)-1-(3-(3,7-dimethylocta-2,6-dienyl)-2-hydroxy-4,6-dimethoxyphenyl)ethanone] | – | – | 72 to 74 | solubility of the compound in the 15-LOX assay (soybean LOX-1 [4]): insolubility
15 | CCCCC(=O)c1c(OC)cc(OC)c(C/C=C(\C)CCC=C(C)C)c1O [Compound 5e, (E)-1-(3-(3,7-dimethylocta-2,6-dienyl)-2-hydroxy-4,6-dimethoxyphenyl)pentan-1-one] | – | – | – | solubility of the compound in the 15-LOX assay (soybean LOX-1 [4]): insolubility
16 | COc1cc(OC)c(C(C)=O)c(O)c1CC=C(C)C [Compound 6a, 1-(2-hydroxy-4,6-dimethoxy-3-(3-methylbut-2-enyl)phenyl)ethanone] | – | – | 97 to 99 | solubility of the compound in the 15-LOX assay (soybean LOX-1 [4]): insolubility
17 | CCCCC(=O)c1c(OC)cc(OC)c(CC=C(C)C)c1O [Compound 6e, 1-(2-hydroxy-4,6-dimethoxy-3-(3-methylbut-2-enyl)phenyl)pentan-1-one] | – | – | 84 to 86 | solubility of the compound in the 15-LOX assay (soybean LOX-1 [4]): insolubility
